Data as given in patent US20050250137A1, “Molecular targets of cancer and aging” (priority 2002, published 2005).
Entries after “also recorded” stand apart in the source; their conditions may differ.

Experiments:
immortal MDAH041 cells [1] = experiment: Western blot protein expression after 5-aza-dC, immortal MDAH041; assay type: cell-based, human; details: for p16^INK4a protein upregulation: 5-aza-CdR-treated vs untreated immortal MDAH041; for p21 protein levels: 5-aza-dC treatment of immortal MDAH041
Method: Twenty μg of cell extract was boiled for 5 minutes in sample buffer, electrophoresed on a 15% SDS-polyacrylamide gel, and transferred to nitrocellulose. […] The anti-mouse IgG was incubated with the blot for 1 hour at room temperature. The signal was detected by enhanced chemiluminescence. […] Louis, Mo.). Lysates were incubated on ice for 30 minutes followed by centrifugation at 10,000×g. Protein was quantitated using the Bradford Reagent (Sigma, St. Louis, Mo.). Equal amounts of protein were electrophoresed in an appropriate percentage SDS-polyacrylamide gel (SDS-PAGE) and transferred to nitrocellulose membranes. The membranes were incubated with antibodies as indicated. […] The western blots were then incubated with a horseradish peroxidase-conjugated secondary and developed using SuperSignal West Pico (Pierce, Rockford, Ill.). As a control, parallel western blots were probed with α-Tubulin.

immortal MDAH041 cells [2] = experiment: Senescence phenotype (morphology, senescence associated β-galactosidase at pH 6), immortal MDAH041; assay type: cell-based, human; details: immortal MDAH041 high passage treated with 5AZA-dC (1 μM days 1, 3, 5)
Method: The MDAH041 (p53 frameshift mutation) cell line was derived from primary fibroblasts obtained by skin biopsy from patients with LFS. […] All cells were grown in modified Eagles medium (MEM, Gibco BRL, MD, USA) with 10% fetal calf serum and antibiotics. The CRL1502 cell line was derived from primary fibroblasts obtained by skin biopsy from a normal donor (ATCC 1502, Rockville, Md., USA).

[3] = test system: immortal MDAH087 cell lines; experiment: Senescence phenotype (morphology, senescence-associated β-galactosidase), immortal MDAH087 cell lines; assay type: cell-based, human; details: 5-aza-dC treatment of immortal MDAH087 cell lines
nonimmortal cells = experiment: Senescence-like state in nonimmortal cells after 5Aza-dC; assay type: cell-based, human; details: nonimmortal cells treated with 5Aza-dC
[4] = test system: immortal (high passage) MDAH041 cells
[5] = Western blot, listed as 5AZA-dC
[6] = Western blot, after 5-aza-dC treatment, MDAH041
[7] = Western blot, immortal MDAH041 treated with 5-aza-dC

In the case of Nc1ncn([C@H]2C[C@H](O)[C@@H](CO)O2)c(=O)n1 [5-aza-dC, 5-aza-2′-deoxycytidine], the “p16^INK4a protein upregulation” value (immortal MDAH041 cells [1]; Western blot, listed as 5-aza-CdR) is reported as “over 500 fold”, the “p16^INK4a protein upregulation” value (immortal MDAH041 cells [1]; [5]) is reported as “approximately 500 fold” and the p21 protein levels (immortal MDAH041 cells [1]; Western blot) is reported as “protein expression of both was induced”. For the same compound, the p21 protein levels (immortal MDAH041 cells [1]; [5]) was “not regulated”, the IGFBP4 protein (immortal MDAH041 cells [1]; [6]) was “slight induction; also recorded: little to no induction” and the IGFBPrP1 protein (immortal MDAH041 cells [1]; [6]) was “little to no induction”. The “p16^INK4a protein expression” value (immortal MDAH041 cells [1]; [7]) was “protein expression of both was induced”, the “protein levels of STAT1α” value (immortal MDAH041 cells [1]; [7]) was “increased in response to treatment” and the IGFBP3 protein levels (immortal MDAH041 cells [1]; Western blot, response to 5-aza-dC, MDAH041) was “increased in response to 5-aza-dC”. The STAT1 protein upregulation (immortal MDAH041 cells [1]; immortal cells, 5AZA-dC treatment) was 4.7 fold, the “senescent phenotype of treated cells” value (immortal MDAH041 cells [2]) was “had flat morphology, contained lipofuscin granules, and showed senescence associated β-galactosidase activity at pH 6” and the “senescent phenotype of treated cells” value [3] was “resulted in a flat senescence-like morphology and the activation of the senescence-associated β-galactosidase activity”. For the same compound, the “induction of senescence-like state” value (nonimmortal cells) was “does not result in an induction of an senescence-like state”, the “2-5A synthetase induced by interferon OAS-1 expression” value [4] was 76.5 fold and the “2-5 oligoadenylate synthetase 59 kDa OAS-L expression” value [4] was 40.0 fold. The “041 5-aza Ave Signal Log” value [4] was 0.93, the “(2-5′) oligoadenylate synthetase 59 kDa isoform OAS-L expression” value [4] was 40.0 fold and the “ALDH1A3 expression, 5A” value [4] was 2.8 fold. For the same compound, the “ALDH1A3 expression, IM vs 5-aza-dC, MA” value [4] was 2.8 fold, the Adlican expression [4] was 17.6 fold and the “Aldehyde dehydrogenase 6 expression” value [4] was 4.1 fold. For the same compound, the “Aortic carboxypeptidase-like protein expression” value [4] was 12.3 fold, the “Associated molecule with the SH3 domain of STAM expression” value [4] was 7.6 fold and the “B2-bradykinin receptor, 3 expression” value [4] was 3.8 fold. For the same compound, the “B94 protein (tumor necrosis factor-alpha-inducible) expression” value [4] was 5.5 fold, the “BAC clone RG118D07 from 7q31 expression” value [4] was 5.5 fold and the “BST-2 (bone marrow stroma cell surface gene) expression” value [4] was 38.7 fold. For the same compound, the Beta-thromboglobin-like protein expression [4] was 17.5 fold, the “Bone morphogenetic protein 2A expression” value [4] was 9.9 fold and the “CDNA DKFZp564H142 expression” value [4] was 9.5 fold. The “CIG5 (cytomegalovirus induces interferon-responsive) expression” value [4] was 66.6 fold, the CIG5 vipirin expression [4] was 67.0 fold and the “CIG49 (cytomegalovirus induces interferon-responsive) expression” value [4] was 70.2 fold. For the same compound, the “CIG49 Interferon-induced protein with tetratricopepide repeats 4 expression” value [4] was 70.2 fold, the “CLTB expression, 5A” value [4] was 1.5 fold and the “CLTB expression, IM vs 5-aza-dC, MA” value [4] was 1.5 fold. For the same compound, the “CREG expression, 5A” value [4] was 2.2 fold, the “CREG expression, IM vs 5-aza-dC, MA” value [4] was 2.21 fold and the “CYP1B1 expression, 5A” value [4] was 8.2 fold. The “Carbonic anhydrase precursor (CA 12) expression” value [4] was 8.9 fold, the “Complement cytolysis inhibitor (CLI) expression” value [4] was 5.1 fold and the “Complement factor H expression” value [4] was 6.8 fold. For the same compound, the “Cysteine-rich heart protein expression” value [4] was 8.8 fold, the “Cytokine (GRO-beta, GRO-2) expression” value [4] was 29.6 fold and the “Cytokine (GRO-gamma) expression” value [4] was 56.8 fold. For the same compound, the “DUSP6 (dual specificity MAP kinase-phosphatase) expression” value [4] was 4.6 fold, the “Dickkopf-1 (hdkk-1) expression” value [4] was 14.4 fold and the “Dioxin-inducible cytochrome P450 (CYP1B1) expression” value [4] was 6.9 fold. The “Dual-specificity protein phosphatase expression” value [4] was 12.6 fold, the “FLJ14675 expression, 5A” value [4] was 3.8 fold and the “Factor H homologue expression” value [4] was 7.5 fold. The Fibulin-2 expression [4] was 21.8 fold, the “Gamma-interferon-inducible protein (IP-30) expression” value [4] was 31.2 fold and the “Genes for histones H2B.1 and H2A expression” value [4] was 4.3 fold. The Gravin expression [4] was 12.2 fold, the “HEM45 (interferon-stimulated gene, 20-kd; ISG20) expression” value [4] was 50.2 fold and the “HEM45, ISG-20 expression” value [4] was 50.2 fold. For the same compound, the “HLA class I locus C heavy chain expression” value [4] was 5.7 fold, the “HLA-F, gene for major histocompatibility complex class I F expression” value [4] was 29.4 fold and the “HPS5 expression, 5A” value [4] was 1.6 fold. For the same compound, the “HSPA2 expression, 5A” value [4] was 1.6 fold, the “HSPA2 expression, IM vs 5-aza-dC, MA” value [4] was 1.6 fold and the “HTATIP2 expression, 5A” value [4] was 5.6 fold. The “IGFBP3 expression, IM vs 5-aza-dC, MA” value [4] was 2.48 fold, the “IGFBP4 expression, IM vs 5-aza-dC, MA” value [4] was 3.72 fold and the “Inhibitor of apoptosis protein 1 expression” value [4] was 13.1 fold. For the same compound, the “Insulin-like growth factor binding protein 6 expression” value [4] was 5.9 fold, the “Insulin-like growth factor binding protein-4 expression” value [4] was 3.8 fold and the “Integral membrane glycoprotein LIG-1 (TM4SF1) expression” value [4] was 5.2 fold. The “Interferon regulatory factor 7B expression” value [4] was 17.5 fold, the “Interferon, alpha-inducible protein 27 expression” value [4] was 482.0 fold and the “Interferon-induced p78, Mx1 expression” value [4] was 202 fold. For the same compound, the “Interferon-induced p78, MxB expression” value [4] was 122.1 fold, the “Interferon-inducible 56 Kd protein expression” value [4] was 36.6 fold and the “Interferon-inducible 56 kDa protein expression” value [4] was 36.6 fold. For the same compound, the “Interferon-inducible membrane protein 9-27 (IFITM1) expression” value [4] was 8.8 fold, the “Interferon-inducible peptide (6-16) expression” value [4] was 10.2 fold and the “Interferon-inducible protein 9-27 expression” value [4] was 8.8 fold. For the same compound, the “Interferon-inducible protein (Absent in Melanoma 2, AIM2) expression” value [4] was 21.6 fold, the “Interferon-inducible protein AIM2 (absent in melanoma) expression” value [4] was 21.6 fold and the “Interferon-inducible protein Mx1 expression” value [4] was 42 fold. The “Interferon-inducible protein p78, Mx2 expression” value [4] was 202 fold, the “Interferon-stimulated gene p27 mRNA expression” value [4] was 482.0 fold and the “Interleukin 8 expression” value [4] was 92.7 fold. The “K12 protein precursor (SECTM1) expression” value [4] was 19.6 fold, the KIAA0744 protein expression [4] was 8.6 fold and the “KIAA 1077 protein Sulfatase FP expression” value [4] was 10.9 fold. For the same compound, the “KIAA1750 expression, 5A” value [4] was 2.9 fold, the “KIAA1750 expression, IM vs 5-aza-dC, MA” value [4] was 2.88 fold and the “Keratin 18 expression” value [4] was 13.5 fold. For the same compound, the “Ly-6-related protein (9804) gene expression” value [4] was 34.1 fold, the “MAP1LC3B expression, 5A” value [4] was 1.7 fold and the “Major group rhinovirus receptor (HRV) ICAM expression” value [4] was 28.9 fold. For the same compound, the “Major group rhinovirus receptor (HRV) expression” value [4] was 28.9 fold, the “Melanoma growth stimulatory activity (MGSA) (GRO-1) expression” value [4] was 64.6 fold and the “Microphage migration inhibitory factor (MIF) expression” value [4] was 42.1 fold. The “Microtubular protein 44 expression” value [4] was 17.8 fold, the “Microtubular protein p44 (IFI44) expression” value [4] was 17.8 fold and the “NK4 protein (natural killer cell transcript 4) expression” value [4] was 20.2 fold. The “Neurite outgrowth-promoting protein expression” value [4] was 7.1 fold, the “Neuromedin B Precursor expression” value [4] was 5.6 fold and the “Nk4 protein (natural killer cell transcript 4) expression” value [4] was 20.2 fold. For the same compound, the “OPTN expression, 5A” value [4] was 2.6 fold, the “OPTN expression, IM vs 5-aza-dC, MA” value [4] was 2.6 fold and the Optineurin-like protein expression [4] was 4.2 fold. The “PCTAIRE 2 (pctaire protein kinase) expression” value [4] was 19.3 fold, the “Pig 7 expression” value [4] was 9.4 fold and the “Placental protein 5 (PP5) expression” value [4] was 29.3 fold. The “Placental tissue factor (two forms) expression” value [4] was 8.7 fold, the “Putative monocarboxylate transporter expression” value [4] was 6.3 fold and the “Rad (Ras associated with diabetes) expression” value [4] was 19.7 fold. The “Retinoic acid receptor responder 3 expression” value [4] was 7.1 fold, the “SERPINB2 expression, 5A” value [4] was 4.2 fold and the “SERPINB2 expression, IM vs 5-aza-dC, MA” value [4] was 4.2 fold. For the same compound, the “STAT1α expression, IM vs 5-aza-dC, MA” value [4] was 2.92 fold, the “Signal Transducer Activator of Transcription 1 STAT1 91 kDa expression” value [4] was 7.6 fold and the “Similar to gb: L 19779 HISTONE H2A.1 expression” value [4] was 10.3 fold. The “Skin collagenase MMP1 expression” value [4] was 4.8 fold, the “TESTIN 3 testis derived transcript (3 LIM domains) expression” value [4] was 8.1 fold and the “TNF-related apoptosis inducing ligand TRAIL expression” value [4] was 42.2 fold. The “TNF-related apoptosis inducing ligand, TRAIL expression” value [4] was 42.2 fold, the “TNFAIP2 expression, 5A” value [4] was 5.4 fold and the “TNFAIP2 expression, IM vs 5-aza-dC, MA” value [4] was 5.41 fold. The “Tat-interacting protein TIP30 expression” value [4] was 8.9 fold, the “Transcription Factor MAFF expression” value [4] was 8.1 fold and the “Transcription factor ISGF-3 (Stat 1) expression” value [4] was 7.6 fold. For the same compound, the “Transglutaminase (TGase) expression” value [4] was 144.6 fold, the “Tripartite motif-containing protein 14, TRIM14 expression” value [4] was 6.2 fold and the “Tumor antigen (L6) expression” value [4] was 17.5 fold. For the same compound, the “Tumor necrosis factor-inducible (TSG-6) expression” value [4] was 10.3 fold, the “Tyrosine protein kinase (CAK) gene expression” value [4] was 5.7 fold and the “Ubiquitin-conjugating enzyme E2L6 (UBE2L6) expression” value [4] was 5.9 fold. For the same compound, the “VAMP45 (vesicle-associated membrane protein 5) expression” value [4] was 9.1 fold, the “mRNA expressed in osteoblast expression” value [4] was 32.5 fold and the “uPA gene (urokinase-plasminogen activator gene) expression” value [4] was 4.4 fold.
